From patent US5232917A, “Methods, compositions, and compounds for allosteric modulation of the GABA receptor by members of the androstane and pregnane series” (priority 1991, dated 1993) come the findings set out here.

Each structure is given as a SMILES string. Like-named read-outs stand apart in the source and are kept apart here.

In general, ED50 refers to the midpoint of the dose-response relation. In general, IC50 refers to the concentration that gives 50% inhibition. One may read the inhibition as the drop in the measured response relative to a control, in per cent.

The subject of experiment [1] is metrazol induced convulsions. As to the kind of experiment: Inhibition of metrazol induced convulsions (Table 2). The settings on record: Mus musculus; inhibition of metrazol induced convulsions; read-out: Anti-Metrazol ED50. The class given is in vivo, mice. Here is the method: Experiments were also performed to determine the physiological relevance of these interactions by measuring the ability of the compound of and used in the invention to modulate TBPS-induced convulsions in Swiss-Webster mice. […] The time to onset of myoclonus (presence of forelimb clonic activity) induced by TBPS was determined by observing each mouse for a period of 45 minutes. Significant differences between the time to onset in control mice vs. steroid-treated mice were determined by Student's t-test. […] The number of animals with tonic and/or clonic convulsions was recorded. In the maximal electroshock test, 50 mA of current at 60 Hz was delivered through corneal electrodes for 200 msec to induce tonic seizure. […] The ED50 (the dose at which the half-maximal effect occurs) was determined for each screen.
Adult male CFI mice (20-30g) were used in these studies. […] Percent protection against metrazol-induced seizures was plotted against time after administration of the compound. […] Ten to twelve mice were used per dose of test drug. […] The number of animals with tonic and/or clonic convulsions was recorded. The ability of the steroid to abolish the tonic component was defined as the endpoint. Sedative potential was determined by a rotorod test where the number of mice staying on a rotating (6 rpm) rod for ≥1 min. in each of three trials was determined.

For experiment [2], the target named is GABA receptor-chloride ionophore complex (GR complex). As to the kind of experiment: [35S]TBPS binding modulation assay. To be noted: for IC50: read-out: IC50, inhibition of [35S]-TBPS binding, +5 μM GABA, in the presence of 5 μM GABA; for Max. Inhib., maximal % of specifically bound [35S]-TBPS displaced: saturating concentrations of test compound.
In experiment [3] the test system is GABA receptor complex (36Cl uptake, cerebral cortical synaptoneurosomes). Description: GABA-stimulated 36Cl uptake in rat cerebral cortical synaptoneurosomes. The class given is biochemical, rat (male Sprague-Dawley). Here is the method:
In addition, the ability of the BZ clonazepam to modulate ^36 Cl uptake in the presence or absence of 5α-pregnandiol was evaluated.
The homogenate was diluted to a final volume of 40 mL with buffer and filtered through three layers of Nylon mesh (160 μm).
Aliquots of membrane preparation (200 μL) were preincubated at 30° C. for 10 min. The interaction was initiated by the simultaneous addition of drugs/steroids and 0.2 mL ^36 Cl (New England Nuclear Boston, Mass., 0.55 mCi/mmol, 0.8 μCi/ml) resulting in a total incubation volume of 0.4 mL. Steroids and test drugs were solubilized in dimethylsufoxide (DMSO) and added to the reaction mixture in 2 μL aliquots. An equal volume of vehicle was always included in the control reaction mixture. The mixture was gently mixed and ^36 Cl uptake terminated after 5 sec by the of 5 mL of ice cold buffer containing 100 μM picrotoxin (Sigma Chem Co.) followed immediately by rapid filtration through glass fiber filters (Whatman GF/C) under vacuum. The filters were washed twice with 5 mL of ice-cold buffer and the filter-bound radioactivity quantitated by liquid scintillation spectrophotometry. Specific uptake was calculated by subtracting the amount of ^36 Cl bound to the filters in the absence of synaptoneurosomes from that observed in their presence. Percent enhancement represents percent increase in uptake over that of basal ^36 Cl uptake. Statistical comparisons utilized the analysis of variance (ANOVA).

Experiment [4] has as its system metrazol-induced seizures. Description: Time course of antimetrazol activity of prodrugs. The class given is in vivo, mice (CF1). To be noted: 60 mg/kg ip; for responders at 60 mg/kg: Mus musculus.
A further experiment has as its target T1, progesterone receptor (Bos taurus, UniProt F1N712).
T1 construct: from tissue; host or cells: bovine uterus cytosol
T1 sequence (F1N712 1-914): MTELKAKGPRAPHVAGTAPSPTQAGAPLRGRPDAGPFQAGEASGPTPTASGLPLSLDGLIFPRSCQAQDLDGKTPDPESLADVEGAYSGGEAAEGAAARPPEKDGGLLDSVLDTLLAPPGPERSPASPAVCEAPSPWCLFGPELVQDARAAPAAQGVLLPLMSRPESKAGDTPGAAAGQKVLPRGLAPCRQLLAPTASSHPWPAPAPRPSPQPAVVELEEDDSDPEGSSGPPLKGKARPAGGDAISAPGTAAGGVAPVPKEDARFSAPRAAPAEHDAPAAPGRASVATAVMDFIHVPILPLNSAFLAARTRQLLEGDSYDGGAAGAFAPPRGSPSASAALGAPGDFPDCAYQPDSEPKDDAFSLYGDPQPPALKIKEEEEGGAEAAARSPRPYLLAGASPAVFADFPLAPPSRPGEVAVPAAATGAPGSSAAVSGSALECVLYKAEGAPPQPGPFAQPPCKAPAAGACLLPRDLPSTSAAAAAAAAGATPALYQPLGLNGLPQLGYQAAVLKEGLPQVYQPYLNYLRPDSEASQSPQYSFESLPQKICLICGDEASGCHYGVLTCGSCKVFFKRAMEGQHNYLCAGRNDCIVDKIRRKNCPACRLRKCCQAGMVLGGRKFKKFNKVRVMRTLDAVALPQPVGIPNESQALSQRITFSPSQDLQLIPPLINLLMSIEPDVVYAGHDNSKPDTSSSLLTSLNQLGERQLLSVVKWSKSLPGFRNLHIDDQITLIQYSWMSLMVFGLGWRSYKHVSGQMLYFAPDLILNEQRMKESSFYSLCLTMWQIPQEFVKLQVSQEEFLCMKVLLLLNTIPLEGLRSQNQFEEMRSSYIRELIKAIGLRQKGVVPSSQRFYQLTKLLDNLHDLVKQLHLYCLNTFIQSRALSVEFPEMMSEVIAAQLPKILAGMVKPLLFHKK
As to the kind of experiment: Inhibition of 3H-progesterone binding to bovine uteral progesterone receptors. Here is the method:
The hormonal activity of drugs described herein was further studied through testing their potential estrogenic, progestinic, mineralocorticoid and glucocorticoid activities. These activities were analyzed by monitoring the ability of the drugs to inhibit binding of the steroid hormones to their respective hormone receptors.
For the data presented in Table 9, bovine uteri cytosol was isolated as they were for Table 7 and used for following binding to progesterone receptors by following the inhibition of ^3 H-progesterone, the natural ligand.

[5] abbreviates: 1 hr, read-out: Antimetrazol activity, % of animals protected, 1 hr.
[6] abbreviates: 4 hr, read-out: Antimetrazol activity, % of animals protected, 4 hr.

As to `CO[C@H]1C[C@@]2(C)[C@@H](CC[C@@H]3[C@@H]2CC[C@]2(C)[C@@H](C(C)=O)CC[C@@H]32)C[C@@H]1O` [2β-METHOXY-3α-HYDROXY-5α-PREGNAN-20-ONE, 2β-Methoxy-3α-hydroxy-5α-pregnan-20-one], in experiment [1], the ED50 worked out at 60 mg/kg. Moreover, in experiment [2], the IC50 amounted to 66 nM and the “Max. Inhib., maximal % of specifically bound [35S]-TBPS displaced” value amounted to 100%.

Regarding `CCO[C@H]1C[C@@]2(C)[C@@H](CC[C@@H]3[C@@H]2CC[C@]2(C)[C@@H](C(C)=O)CC[C@@H]32)C[C@@H]1O` [2β-ETHOXY-3α-HYDROXY-5α-PREGNAN-20-ONE, 2β-Ethoxy-3α-hydroxy-5α-pregnan-20-one], in experiment [1], the ED50 was 6 mg/kg. Besides, in experiment [2], the IC50 came out at 97 nM and the “Max. Inhib., maximal % of specifically bound [35S]-TBPS displaced” value amounted to 100%.

Consider `CN1CCc2cc3c(cc2[C@H]1[C@@H]1OC(=O)c2c1ccc1c2OCO1)OCO3` [(+)bicuculline, reference compound], for which, in experiment [3] ((+)bicuculline 10 μM, GABA 25 μM), the “block of the stimulatory effect of GABA on 36Cl uptake” value is “completely block”. Besides, in experiment [3] (GABA (25 μM) + (+)bicuculline (10 μM)), the “% enhancement of basal 36Cl uptake” value is on record as 3 ± 2%.

For the compound `CC(=O)O[C@@H]1CC[C@@]2(C)[C@@H](CC[C@@H]3[C@@H]2CC[C@]2(C)[C@@H](C(C)=O)CC[C@@H]32)C1` [CH3], in experiment [4] (setting [5]), the responders at 60 mg/kg came to 25%.

For the compound `CC(=O)[C@H]1CC[C@H]2[C@@H]3CCC4=C[C@H](O)CC[C@]4(C)[C@H]3CC[C@]12C` [3α-HYDROXY-4-PREGNEN-20-ONE], the ED50 in experiment [1] was 20 mg/kg. In experiment [2], the IC50 turned out to be 154 nM and the “Max. Inhib., maximal % of specifically bound [35S]-TBPS displaced” value is recorded as 80%.

For `CC(=O)[C@H]1CC[C@H]2[C@@H]3CC[C@H]4C[C@](C)(O)CC[C@]4(C)[C@H]3CC[C@]12C` [3α-HYDROXY-3β-METHYL-5α-PREGNAN-20-ONE, 3α-hydroxy-3β-methyl-5α-pregnan-20-one], the ED50 in experiment [1] was 9 mg/kg. Further, the inhibition at 10 µM at progesterone receptor (read-out: % of inhibition of 3H-progesterone binding, A, competitor 10^-5 M, 0.15 nM 3H-progesterone) was 10%; on progesterone receptor (read-out: % of inhibition of 3H-progesterone binding, B, competitor 10^-5 M, 0.25 nM 3H-progesterone), 5%. Also, the inhibition at 1 µM on progesterone receptor (read-out: % of inhibition of 3H-progesterone binding, A, competitor 10^-6 M, 0.15 nM 3H-progesterone) was determined as 4%; on progesterone receptor (read-out: % of inhibition of 3H-progesterone binding, B, competitor 10^-6 M, 0.25 nM 3H-progesterone), 2%. In experiment [2], the IC50 was 60 nM. The “Max. Inhib., maximal % of specifically bound [35S]-TBPS displaced” value in experiment [2] is recorded as 100%.

For the compound `NCCCC(=O)O` [GABA, gamma-aminobutyric acid], in experiment [2] (0.5-3.0 μM bicuculline, FIGS. 1A, 1B), the “shift of [35S]TBPS dose-response curve by (+)bicuculline” value is given as “classical parallel shift”. Also, the “% enhancement of basal 36Cl uptake” value in experiment [3] (GABA (25 μM) alone) turned out to be 133 ± 6%.

As for `CCCC(=O)O[C@@H]1CC[C@@]2(C)[C@@H](CC[C@@H]3[C@@H]2CC[C@]2(C)[C@@H](C(C)=O)CC[C@@H]32)C1`, the responders at 60 mg/kg in experiment [4] (setting [5]) was 75%; in experiment [4] (setting [6]) it was 13%.

With `CCCCC(=O)O[C@@H]1CC[C@@]2(C)[C@@H](CC[C@@H]3[C@@H]2CC[C@]2(C)[C@@H](C(C)=O)CC[C@@H]32)C1`, the “Antimetrazol activity, % of animals protected, 20 hr” value in experiment [4] was determined as 33%. Moreover, the responders at 60 mg/kg in experiment [4] (setting [5]) and in experiment [4] (setting [6]) was 33% throughout.

Regarding `CC(=O)OCC(=O)[C@H]1CC[C@H]2[C@@H]3CC[C@H]4C[C@H](OC(=O)C(C)C)CC[C@]4(C)[C@H]3CC[C@]12C`, the results for the responders at 60 mg/kg in experiment [4] (setting [5]) and in experiment [4] (setting [6]) were 63% and 13%, respectively.

Turning to `CC(=O)[C@H]1CC[C@H]2[C@@H]3CC[C@H]4C[C@H](OC(=O)c5ccc(Cl)cc5)CC[C@]4(C)[C@H]3CC[C@]12C`, the figures for the responders at 60 mg/kg in experiment [4] (setting [5]) and in experiment [4] (setting [6]) were 50% and < 16%, respectively.

Consider `CC(=O)OCC(=O)[C@H]1CC[C@H]2[C@@H]3CC[C@H]4C[C@H](O)CC[C@]4(C)[C@H]3CC[C@]12C`, for which the responders at 60 mg/kg was 50% in experiment [4] (setting [5]) and 0% in experiment [4] (setting [6]).

Regarding `COc1ccc(C(=O)O[C@@H]2CC[C@@]3(C)[C@@H](CC[C@@H]4[C@@H]3CC[C@]3(C)[C@@H](C(C)=O)CC[C@@H]43)C2)cc1`, the responders at 60 mg/kg in experiment [4] (setting [5]) and in experiment [4] (setting [6]) was 17% each time.

Consider `CC(=O)[C@H]1CC[C@H]2[C@@H]3CC[C@H]4C[C@H](OC(=O)c5cccnc5)CC[C@]4(C)[C@H]3CC[C@]12C`, for which the “Antimetrazol activity, % of animals protected, 20 hr” value in experiment [4] is reported as 50%.
